Assays:
[1] = system: primary cultures of neurons from spinal ganglia of chicken embryos; experiment: Survival-promoting effect on primary nerve cell cultures (cellular LDH level); type: cell-based; details: neurons from spinal ganglia of chicken embryos (E10); cellular LDH level after 48 hours
Experimental: Primary Nerve Cell Cultures From Spinal Ganglia of Chicken Embryos (Embryo-Onal Development E10)
The preparation and cultivation is performed as described by Borasio G. D., John J., Wittinghofer A., Barde Y.-A., Sendtner M., Heumann R. (1989), Neuron 2, 1087-1096. To determine survival-promoting effects of active substances, determination of the cellular LDH level after an incubation time of 48 hours is employed. To this end, the culture medium is removed by tapping out the plate. Only the vital cells remain adhered to the bottom of the plate and can then be determined. To determine the LDH level, the LDH cytotoxicity test kit of Boehringer Mannheim (BM) is employed.
The cultures were used in duplicate in 96-well microtitration plates. On each plate, an NGF calibration curve is established in parallel, and the biological activity of the substances is expressed in pg/ml of NGF equivalents. As a low-molecular weight reference, the starurosporin derivative K252a is used in a parallel test in a concentration of 300 nmol/l.

primary osteoblasts [2] = experiment: Proliferation assay on primary osteoblasts ([3H]thymidine or BrdU incorporation); type: cell-based; details: primary osteoblasts from fetal rat calvarias; serum-free medium with 1 mg/ml BSA; established for both native and synthetic peptide
Experimental: The isolation of OB-CDGF was based on its biological activity in a proliferation assay of the primary osteoblasts. Thus, aliquots of each of the individual chromatographic stages described under Example 1 were freeze-dried and then subjected to a biological assay. The fractions which gave a positive signal were respectively subjected to further purification.
The assay measures the proliferation of the cells after having been kept in serum-free medium with 1 mg/ml bovine serum albumin, adding the samples and determining the incorporation of [^3H]thymidine or bromode-oxyuranosine (Brdu) after a further 48 hours. As a positive control, factors promoting bone growth, such as IGF or angiotensin, or fetal calf serum (FCS) are employed.
The experiments were performed by analogy with Pfeilschifter et al., Endocrinology 126, 703, 1990.
The recovery of primary osteoblasts was effected by sequential digestive separation from fetal rat calvarias using collagenase to obtain 5 cell fractions. The pooled cell fractions 3-5 were cultured in vitro. […]
At the end of the incubation time, the cell cultures were washed three times with 0.9% saline, and then 100 μl of liquid scintillator (OptiPhase Super-mix®, Wallac) was added to each well. Subsequently, the radioactivity incorporated in the DNA was measured in a liquid scintillation counter (1450 MicroBeta®, Wallac) in cpm. […]

[3] = system: neonatal rat osteoblast monolayers; experiment: Binding assay of 125I-labeled OB-CDGF to osteoblasts; details: confluent layers and extracellular matrix of neonatal rat osteoblasts; 2 hours at 4° C.; FIG. 5
Experimental: The binding of the osteoproliferative peptides to neonatal rat osteoblast monolayers was effected with the use of ^125j-labeled peptides. Chloramine T was used for iodination. The specific activity of the peptides was 100,000 cpm/ng. The binding studies were performed on confluent layers and the extracellular matrix of a first passage of neonatal rat osteoblasts. The cells were incubated for 24 hours in serum-containing medium and then washed four times with PBS and incubated for 2 hoursat 4° C. in 250 μl of the assay buffer (20 mM HEPES, 0.1 mg/ml BSA, pH 7.0) with 80,000 cpm of the iodine-labeled peptide in the presence of different concentrations of the unlabeled peptide. The incubation buffer was then removed, and the cells washed four times with cold PBS and solubilized with 1 M NaOH. The cell-bound activity was determined using a gamma counter. The corresponding experimental results are represented in FIG. 5.

primary osteoblasts [4] = experiment: Intracellular calcium release in primary osteoblasts (Fura-2); type: cell-based, rat; details: single primary osteoblasts, Fura-2, fluorescence microscope; FIG. 6
Experimental: The intracellular signal chain for calcium^2+is measured on individual osteoblast cells. The intracellular Ca^2+activity of primary osteoblasts is measured with the Ca^2+-sensitive dye Fura-2 (Calbiochem, Bad Soden, Germany). The primary osteoblasts are cultured for one to three days on glass supports (diameter 30 mm) attached to a perfusion chamber of an inverted microscope (Axiomat IDC-UV, Zeiss, Gottingen, Germany). […]
The incubation is followed by an equilibration period of 10 to 15 min in which the cells are washed with KHB solution at 37° C. with a perfusion rate of about 5 ml/min. The Fura-2-charged primary osteoblasts are measured at 340, 360 and 380 nm with a high speed filter wheel (rotational speed 10 Hertz), a single-photon counter tube (Hamamatsu, Herrsching, Germany) and a xenon quartz lamp (XBO 75 W/OFR, Zeiss, Germany) as a light/impulse source. The Fura-2 emission is measured through a long-wave filter at 510 nm with an Ultrafluar 125 ×glycerol immersion lens. […] The ratio of photon emissions upon excitation at 340 and 380 nm is evaluated. […] The raw data are calculated, and 10 neighboring data points are averaged to obtain a time resolution of 1 Hz. The fluorescence at 360 nm is used to test calcium activity. All samples are dissolved in a phosphate buffer prior to the experiment and measured for at least 1 to 2 minutes. […]

MAP kinase = experiment: Western blot detection of intracellular MAP kinase in primary osteoblasts; type: cell-based, rat; details: primary osteoblasts incubated for different periods of time; FIG. 7
Experimental: As already shown under Example 5, intracellular calcium release can be induced on primary osteoblasts by incubation with CDGF. To further characterize this physiological response, the further intracellular signal pathway (downstream from calcium) was examined. One possible signal transduction cascade is the activation of MAP kinase, an enzyme which plays an essential role in the signal transduction from the cytoplasm into the nucleus. Signal transmission involves phosphorylation of the enzyme which can be detected with a specific antibody. Thus, this protein can be detected in a Western blot, which is a measure of both the phosphorylation and the expression due to the stimulus. Primary osteoblasts were incubated with cadherin or controls (FCS) for different periods of time. Expression of the enzyme (MAP kinase) in the cell was detected in the Western blot by the addition of the antibody. The results are represented in FIG. 7. […] The longer the stimulation with OB-CDGF, the more clearly could the band be discerned. […] Therefrom, it can be concluded that CDGF acts through calcium in a receptor-mediated way, and the further signal processing proceeds via MAP kinase.

Row | Sequence | survival-promoting effect on primary neurons [1] | growth-promoting effect on primary osteoblasts (proliferation) (primary osteoblasts [2]) | displacement of labeled OB-CDGF by unlabeled OB-CDGF (specific binding) [3] | intracellular calcium concentration (primary osteoblasts [4]) | expression of intracellular MAP kinase (Western blot band) (MAP kinase)
1 | QPQPQQTLATEPRENVIHLPGQRSHFQRV (listed as Homo sapiens) [BR-CDGF, peptide corresponding to the CDGF region of cadherin-12 (BR-cadherin; N-cadherin-2)] | survival-promoting effect on these primary neurons in a concentration-dependent way |  |  |  | 
2 | TLSTPLSKRTSGFPAKKRALELSGNSKNELNRS (listed as Homo sapiens) [CAD6-CDGF, peptide corresponding to the CDGF region of cadherin-6] | survival-promoting effect on these primary neurons in a concentration-dependent way |  |  |  | 
3 | ERRGHLRPSFHGHHEKGKEGQVLQRS (listed as Homo sapiens) [OB-CDGF, peptide purified from human hemofiltrate and resynthesized; human cadherin-11 precursor propeptide, amino acids 26-51] |  | dose-dependent growth-promoting effect | the level of specifically bound labeled OB-CDGF is reduced | intracellular calcium concentration increases | leads to expression of intracellular MAP kinase

From patent US6809175B1, “Cadherin derived growth factor and its use” (Prof. Dr. Wolf-Georg Forssmann, priority 1997, dated 2004)
